Results as given in ChEMBL document CHEMBL4420071, “Method for treating skin with retinoids and retinoid boosters” (2013).

Key:
[1] = target: T1, Diacylglycerol O-acyltransferase 1 (Bos taurus) (UniProt Q8MK44); settings: at 100 µM
T1 sequence (whole entry): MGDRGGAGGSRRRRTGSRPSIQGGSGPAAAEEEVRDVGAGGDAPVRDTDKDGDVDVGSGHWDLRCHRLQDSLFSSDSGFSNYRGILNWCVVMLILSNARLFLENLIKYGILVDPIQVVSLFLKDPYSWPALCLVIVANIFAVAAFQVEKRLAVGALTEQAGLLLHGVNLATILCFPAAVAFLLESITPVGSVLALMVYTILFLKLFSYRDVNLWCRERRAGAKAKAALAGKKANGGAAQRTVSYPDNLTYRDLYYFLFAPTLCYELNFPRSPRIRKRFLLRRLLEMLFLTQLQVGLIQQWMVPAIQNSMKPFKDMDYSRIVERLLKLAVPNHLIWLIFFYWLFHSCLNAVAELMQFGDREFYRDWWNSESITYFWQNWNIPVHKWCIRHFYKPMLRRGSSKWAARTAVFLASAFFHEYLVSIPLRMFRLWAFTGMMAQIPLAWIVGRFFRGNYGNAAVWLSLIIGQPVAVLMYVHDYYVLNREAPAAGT
Description: Inhibition of ARAT in bovine RPE microsomes at 100 uM using retinol substrate in presence of dilauroyl-phosphatidyl choline incubated for 5 mins by HPLC analysis relative to control

[2] = target: T2, Lecithin retinol acyltransferase (Bos taurus) (UniProt Q9BGL2); experiment: Inhibition of LRAT in bovine RPE microsomes at 10 uM using retinol substrate in presence of Palmitoyl-CoA incubated for 5 mins by HPLC analysis relative to control
T2 sequence (whole entry): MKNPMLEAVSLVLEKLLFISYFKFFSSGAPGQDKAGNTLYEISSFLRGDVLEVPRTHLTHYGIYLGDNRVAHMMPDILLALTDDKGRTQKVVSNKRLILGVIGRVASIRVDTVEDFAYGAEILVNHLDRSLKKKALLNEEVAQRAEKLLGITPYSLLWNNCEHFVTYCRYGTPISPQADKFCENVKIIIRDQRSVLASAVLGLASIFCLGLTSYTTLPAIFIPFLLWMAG

[3] = target: T2, Lecithin retinol acyltransferase (Bos taurus); settings: at 100 µM
Description: Inhibition of LRAT in bovine RPE microsomes at 100 uM using retinol substrate in presence of Palmitoyl-CoA incubated for 5 mins by HPLC analysis relative to control

[4] = target: T1, Diacylglycerol O-acyltransferase 1 (Bos taurus); experiment: Inhibition of ARAT in bovine RPE microsomes at 10 uM using retinol substrate in presence of dilauroyl-phosphatidyl choline incubated for 5 mins by HPLC analysis relative to control

Description for Homo sapiens: Inhibition of transglutaminase in human keratinocytes in presence of 10 uM retinal relative to retinal alone

In the case of `CC(C)(O)CCCC1=CCC(C=O)CC1` (stereo not drawn), the IC20 (Homo sapiens) is reported as 4 ×10⁻⁵ M.

`Clc1ccc(COC(Cn2ccnc2)c2ccc(Cl)cc2Cl)c(Cl)c1` (stereo not drawn) gave an IC20 (Homo sapiens) of 8.42 ×10⁻⁸ M.

Molecule `C/C=C/C(=O)C1=C(C)CC(C)(C)CC1` has an inhibition [1] of 80%.

`C=CCCC(=O)/C=C/C1C(C)=CCCC1(C)C` (stereo not drawn) showed an inhibition [2] of 17%.

`CCOC(=O)C1=C(C)C=CCC1(C)C` gave an inhibition [3] of 49%.

`O=c1ccc2ccccc2[nH]1` was tested, and the IC20 (Homo sapiens) was 1.7 ×10⁻⁴ M.

In the case of `CC1=CC[C@H](CC[C@H](C)CO)C1(C)C`, the inhibition [3] is reported as 75% and the inhibition [1] is reported as 70%.

With `C/C=C\C(=O)C1C(C)=CCCC1(C)C` (stereo not drawn) the inhibition [2] was 87%, the IC20 (Homo sapiens) was 1.69 ×10⁻⁴ M and the inhibition [3] was 98%. It also gave an inhibition [4] of 67% and an inhibition [1] of 83%.

Molecule `CC(=O)/C(C)=C/C1C(C)=CCCC1(C)C` (stereo not drawn) has an inhibition [3] of 38%.

For `C[C@H]1[C@H](C)CC[C@]2(C(=O)O)CC[C@]3(C)C(=CC[C@@H]4[C@@]5(C)CC[C@H](O)C(C)(C)[C@@H]5CC[C@]43C)[C@H]12`, the IC20 (Homo sapiens) was 5.94 ×10⁻⁷ M.

`CCN(CC)CC(=O)Nc1c(C)cccc1C` gave an inhibition [3] of 0%.

`CCCCC/C=C\C/C=C\CCCCCCCC(=O)NCCCN(C)C` gave an inhibition [3] of 75% and an inhibition [1] of 69%.

`CC1=CCCC(C)(C)C1/C=C/C(=O)CC(C)C` (stereo not drawn) gave an inhibition [3] of 45% and an inhibition [1] of 8%.

Work on `CC(/C=C/C=C(\C)C(=O)O)=C\C=C\C=C(C)\C=C\C=C(/C)C(=O)O` yielded an inhibition [2] of 0% and an IC20 (Homo sapiens) of 2.52 ×10⁻⁵ M.

`O=c1c2cccc3cccc(c32)c2nc3ccccc3n12` showed an IC20 (Homo sapiens) of 4.69 ×10⁻⁷ M.

`CC(C)=CCC/C(C)=C/CC/C(C)=C/CC/C(C)=C/CO` was tested, and the inhibition [2] was 16%, the inhibition [3] was 77% and the inhibition [4] was 38%. It also gave an inhibition [1] of 81%.

For `O=C1C[C@@H](c2ccc(O)cc2)Oc2cc(O)cc(O)c21`, the inhibition [3] was 14%.

`CC1=CC(C)C(CO)C(C)C1` (stereo not drawn) showed an inhibition [3] of 16% and an inhibition [1] of 18%.

`CCCCCCCCCCCC(=O)NCCC[N+](C)(C)CC(=O)[O-]` showed an inhibition [1] of 25%.

`CC(=O)/C=C/C1C(C)=CCCC1(C)C` (stereo not drawn) showed an IC20 (Homo sapiens) of 1.42 ×10⁻⁴ M.

`CCCCCCCC/C=C\CCCCCCCC1=NCCN1CCO` gave an IC20 (Homo sapiens) of 5.65 ×10⁻⁶ M.

Work on `CC(=O)/C=C/C=C(\C)CCC=C(C)C` yielded an inhibition [1] of 12%.

In the case of `C/C=C/C(=O)C1=C(C)C=CCC1(C)C`, the inhibition [2] is reported as 29%, the inhibition [3] is reported as 79% and the inhibition [1] is reported as 70%.

Work on `CC(=O)N1CCN(c2ccc(OCC3COC(Cn4ccnc4)(c4ccc(Cl)cc4Cl)O3)cc2)CC1` (stereo not drawn) yielded an IC20 (Homo sapiens) of 5.52 ×10⁻⁸ M.

For `CCCCCCCC/C=C\CCCCCCCC[N+](C)(C)CC(=O)[O-]`, the IC20 (Homo sapiens) was 1.08 ×10⁻⁵ M and the inhibition [1] was 47%.

`CCC(=O)C=CC1C(C)=CCCC1(C)C` (stereo not drawn) gave an inhibition [3] of 77% and an inhibition [1] of 67%.

With `CCCCCCCCCCCC1=NCCN1CCO` the IC20 (Homo sapiens) was 2.69 ×10⁻⁷ M.

Work on `CCCCCCCCCCCCCC(=O)N(C)CC(=O)O` yielded an inhibition [3] of 11% and an inhibition [1] of 41%.

With `CCC=CCCC=CC=O` the inhibition [1] was 20%.

With `CC(=O)c1cc2c(cc1C)C(C)(C)C(C)CC2(C)C` (stereo not drawn) the inhibition [3] was 33%.

`C/C=C/C(=O)C1C(C)C=CCC1(C)C` (stereo not drawn) gave an inhibition [2] of 64% and an inhibition [3] of 95%.

`O=c1c(O)c(-c2ccc(O)c(O)c2)oc2cc(O)cc(O)c12` showed an IC20 (Homo sapiens) of 5.11 ×10⁻⁵ M.

With `CC(C)=CCC/C(C)=C/CO` the IC20 (Homo sapiens) was 4.72 ×10⁻³ M.

For `C/C=C/C(=O)C1=C(C)CCCC1(C)C`, the inhibition [4] was 45%.

`CC(C)(C)C(=O)C(Oc1ccc(Cl)cc1)n1ccnc1` (stereo not drawn) gave an IC20 (Homo sapiens) of 2.45 ×10⁻⁷ M.

Molecule `CC(C)=CCCC(C)=CCCC(C)=CCO` has an inhibition [2] of 10%, an IC20 (Homo sapiens) of 7.82 ×10⁻⁵ M and an inhibition [3] of 53%. It also gave an inhibition [4] of 23% and an inhibition [1] of 53%.

`CC(=O)C1(C)C2CC3C(C2)C31C` (stereo not drawn) was tested, and the inhibition [3] was 12% and the inhibition [1] was 23%.

`CCCCC/C=C\C/C=C\CCCCCCCC(=O)NCCO` was tested, and the inhibition [2] was 20% and the IC20 (Homo sapiens) was 1.48 ×10⁻⁵ M.

`CCCCC/C=C\C/C=C\CCCCCCCC(=O)NC(C)c1ccccc1` (stereo not drawn) gave an inhibition [3] of 43% and an inhibition [1] of 64%.

`CCCCC/C=C\C/C=C\CCCCCCCC(=O)N(CCO)CCO` showed an inhibition [2] of 11%, an inhibition [3] of 51% and an inhibition [4] of 12%. The inhibition [1] was 43%.
